Measurements as given in patent publication US20100168133A1, “USE OF SUBSTITUTED QUINOLINE DERIVATIVES FOR THE TREATMENT OF DRUG RESISTANT MYCOBACTERIAL DISEASES” (priority 2004, published 2010).
≈ marks a conversion by molar mass, not a printed value. Where two headings read alike, the source gives them in different places.

What was measured:
M. avium = assay type: cell-based; conditions: M. avium resistant to fluoroquinolones, mutation Ala83Val (Table 9)
M. fortuitum = assay: In-vitro MIC in solid medium against fluoroquinolone-resistant clinical isolates; assay type: cell-based; conditions: Mycolicibacterium fortuitum, no mutation indicated, Table 10 1st strain
[1] = test system: M. tuberculosis H37Rv strain; assay type: in vivo, Swiss female mice
[2] = test system: M. tuberculosis strain H37Rv; assay: In vivo susceptibility of M. tuberculosis to compound 12 in combination with other antimycobacterial agents, lung CFU (Tables 13, 14); set-up: species or system Swiss mice; conditions: for CFU 1 month (lung) / CFU 2 months (lung): once-a-day group (gavage 5 days/week from day 14), D0 = 7.23; for CFU 1 month (lung): lung CFU after 1 month of treatment; for CFU 2 months (lung): lung CFU after 2 months of treatment; for Decrease 1 mo vs D0 (lung CFU) / Decrease 2 mo vs D0 (lung CFU) / % positive mice 2nd month: once-a-day group; for Decrease 1 mo vs D0 (lung CFU): 1 month of treatment versus D0 (7.23); for Decrease 2 mo vs D0 (lung CFU): 2 months of treatment versus D0 (7.23); for % positive mice 2nd month: culture-positive mice / mice examined after 2 months; for % positive mice / lung CFU*: once-a-week group, after 2 months of treatment; for lung CFU*: by gavage, D0 value 7.23
[3] = […], treatment from day 14, five times weekly, title: 2 months (footnote: four weeks, sacrifice day 42)

| Structure (SMILES) | MIC (M. avium) | MIC (M. fortuitum) | Mean CFU (log10) per Lung [1, 3] | Mean CFU (log10) per Spleen [1, 3] | Spleen weight (mean) [1, 3] | CFU 1 month (lung) [2] | CFU 2 months (lung) [2] | Decrease 1 mo vs D0 (lung CFU) [2] | Decrease 2 mo vs D0 (lung CFU) [2] | % positive mice 2nd month [2] | % positive mice [2] | lung CFU* [2] | Mean CFU (log10) per Lung ([1]; mouse, in vivo) | Mean CFU (log10) per Spleen ([1]; mouse, in vivo) | Spleen weight (mean) ([1]; mouse, in vivo) |
| --- | --- | --- | --- | --- | --- | --- | --- | --- | --- | --- | --- | --- | --- | --- | --- |
| COc1nc2ccc(Br)cc2cc1[C@@H](c1ccccc1)[C@@](O)(CCN(C)C)c1cccc2ccccc12 [Compound 12, (αS,βR)-6-bromo-α-[2-(dimethylamino)ethyl]-2-methoxy-α-1-naphthalenyl-β-phenyl-3-quinolineethanol] | 0.007 µg/mL (≈ 0.0126 µM) | 0.01 µg/mL (≈ 0.018 µM) | 0.22 ± 0.32 log10 | 1.24 ± 0.50 log10 | 248 ± 47 mg | 4.14 | 2.28 | −3.09 | −4.95 | 8/10 | 9/9 | 1.99 +/− 0.75 |  |  |  |
| COc1c(N2C[C@@H]3CCCN[C@@H]3C2)c(F)cc2c(=O)c(C(=O)O)cn(C3CC3)c12 [M, moxifloxacin] |  |  | 2.89 ± 0.57 log10 | 3.53 ± 0.34 log10 | 400 ± 99 mg | 5.51 | 4.3 | −1.72 | −2.93 | 10/10 | 7/7 | 6.44 +/− 0.5 |  |  |  |
| CC1COc2c(N3CCN(C)CC3)c(F)cc3c(=O)c(C(=O)O)cn1c23 (stereo not drawn) [Ofloxacin, ofloxacin] |  | 1 µg/mL (≈ 2.77 µM) |  |  |  |  |  |  |  |  |  |  |  |  |  |
| CO[C@H]1/C=C/O[C@@]2(C)Oc3c(C)c(O)c4c(O)c(c(/C=N/N5CCN(C)CC5)c(O)c4c3C2=O)NC(=O)/C(C)=C\C=C\[C@H](C)[C@H](O)[C@@H](C)[C@@H](O)[C@@H](C)[C@H](OC(C)=O)[C@@H]1C [Rifampin, rifampin] | 16 µg/mL (≈ 19.4 µM) | 128 µg/mL (≈ 156 µM) |  |  |  | 6.01 | 4.07 | −1.22 | −3.16 | 10/10 |  |  | 1.89 ± 0.50 log10 | 2.75 ± 0.34 log10 | 391 ± 70 mg |
